Laboratory results published in PubChem BioAssay AID2060512 (Molecular Pharmacology Branch, DTP, NCI, 2025).

System: 186277-243-T-J2-PDC complex spheroid viability
Assay: Anticancer human tumor 186277-243-T-J2-PDC patient-derived colon adenocarcinoma cell line growth inhibition [GQUAD]
Conditions: for IC50: curve of first compound; for viability, T/C: stronger effect = lower value; active means viability on the fitted dose curve at most 10% of control; inactive means the rest
In short: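 Multi-cell-type spheroids of tumor cells with HUVEC and mesenchymal stem cells, treated with drug combinations. Concentrations descend in half-log steps from near clinical Cmax, or from 10 microM where Cmax is unknown; viability read-out.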

[1] = second compound 0.0316 µM, first compound 0.0316 µM
[2] = second compound 0.0316 µM, first compound 0.1 µM
[3] = second compound 0.0316 µM, first compound 0.316 µM
[4] = second compound 0.0316 µM, first compound 1 µM
[5] = second compound 0.0316 µM, first compound 3.16 µM
[6] = second compound 0.0316 µM, first compound 10 µM
[7] = second compound 0.1 µM, first compound 0.0316 µM
[8] = second compound 0.1 µM, first compound 0.1 µM
[9] = second compound 0.1 µM, first compound 0.316 µM
[10] = second compound 0.1 µM, first compound 1 µM
[11] = second compound 0.1 µM, first compound 3.16 µM
[12] = second compound 0.1 µM, first compound 10 µM
[13] = second compound 0.316 µM, first compound 0.0316 µM
[14] = second compound 0.316 µM, first compound 0.1 µM
[15] = second compound 0.316 µM, first compound 0.316 µM
[16] = second compound 0.316 µM, first compound 1 µM
[17] = second compound 0.316 µM, first compound 3.16 µM
[18] = second compound 0.316 µM, first compound 10 µM
[19] = second compound 1 µM, first compound 0.0316 µM
[20] = second compound 1 µM, first compound 0.1 µM
[21] = second compound 1 µM, first compound 0.316 µM
[22] = second compound 1 µM, first compound 1 µM
[23] = second compound 1 µM, first compound 3.16 µM
[24] = second compound 1 µM, first compound 10 µM
[25] = second compound 3.16 µM, first compound 0.0316 µM
[26] = second compound 3.16 µM, first compound 0.1 µM
[27] = second compound 3.16 µM, first compound 0.316 µM
[28] = second compound 3.16 µM, first compound 1 µM
[29] = second compound 3.16 µM, first compound 3.16 µM
[30] = second compound 3.16 µM, first compound 10 µM
[31] = second compound 10 µM, first compound 0.0316 µM
[32] = second compound 10 µM, first compound 0.1 µM
[33] = second compound 10 µM, first compound 0.316 µM
[34] = second compound 10 µM, first compound 1 µM
[35] = second compound 10 µM, first compound 3.16 µM
[36] = second compound 10 µM, first compound 10 µM
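Further: spheroids exposed to drugs for 7 days.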
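Wherever viability, T/C is given: 100% = DMSO vehicle control viability.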

C=CC(=O)N1CCN(c2nc(=O)n(-c3c(C)ccnc3C(C)C)c3nc(-c4c(O)cccc4F)c(F)cc23)C(C)C1 (stereo unspecified) + Cc1[nH]c2ccc(F)cc2c1-c1nc2c3cccnc3c3ncccc3c2[nH]1
inactive: viability, T/C [1] 92.4% | viability, T/C [2] 87.1% | viability, T/C [3] 92.5% | viability, T/C [4] 85.2% | viability, T/C [5] 107% | viability, T/C [6] 94.9% | viability, T/C [7] 95.7% | viability, T/C [8] 97% | viability, T/C [9] 101% | viability, T/C [10] 78.5% | viability, T/C [11] 113% | viability, T/C [12] 92.8% | viability, T/C [13] 98.9% | viability, T/C [14] 110% | viability, T/C [15] 89.3% | viability, T/C [16] 91.3% | viability, T/C [17] 97.2% | viability, T/C [18] 88.7% | viability, T/C [19] 98.1% | viability, T/C [20] 88.4% | viability, T/C [21] 107% | viability, T/C [22] 87.6% | viability, T/C [23] 111% | viability, T/C [24] 96.3% | viability, T/C [25] 84% | viability, T/C [26] 96.2% | viability, T/C [27] 92% | viability, T/C [28] 96% | viability, T/C [29] 108% | viability, T/C [30] 96% | viability, T/C [31] 94% | viability, T/C [32] 99.7% | viability, T/C [33] 99.1% | viability, T/C [34] 109% | viability, T/C [35] 102% | viability, T/C [36] 80.8%
> 10 µM: IC50 (second compound 0.0316 µM) | IC50 (second compound 0.1 µM) | IC50 (second compound 0.316 µM) | IC50 (second compound 1 µM) | IC50 (second compound 3.16 µM) | IC50 (second compound 10 µM)

CC(C)n1c(=O)n(C)c2cnc3cc(F)c(-c4ccc(OCCCN5CCCCC5)nc4)cc3c21 + Cc1[nH]c2ccc(F)cc2c1-c1nc2c3cccnc3c3ncccc3c2[nH]1
> 10 µM: IC50 (second compound 0.0316 µM) | IC50 (second compound 0.1 µM) | IC50 (second compound 0.316 µM) | IC50 (second compound 1 µM) | IC50 (second compound 3.16 µM) | IC50 (second compound 10 µM)
inactive: viability, T/C [1] 102% | viability, T/C [2] 94.9% | viability, T/C [3] 106% | viability, T/C [4] 95.5% | viability, T/C [5] 101% | viability, T/C [6] 83.6% | viability, T/C [7] 108% | viability, T/C [8] 91.4% | viability, T/C [9] 99.6% | viability, T/C [10] 104% | viability, T/C [11] 93.6% | viability, T/C [12] 89.2% | viability, T/C [13] 83.3% | viability, T/C [14] 105% | viability, T/C [15] 101% | viability, T/C [16] 89.5% | viability, T/C [17] 113% | viability, T/C [18] 98.5% | viability, T/C [19] 87.9% | viability, T/C [20] 89.8% | viability, T/C [21] 104% | viability, T/C [22] 102% | viability, T/C [23] 100% | viability, T/C [24] 97.7% | viability, T/C [25] 91.7% | viability, T/C [26] 90.2% | viability, T/C [27] 105% | viability, T/C [28] 103% | viability, T/C [29] 103% | viability, T/C [30] 96.3% | viability, T/C [31] 96% | viability, T/C [32] 94.7% | viability, T/C [33] 104% | viability, T/C [34] 104% | viability, T/C [35] 89% | viability, T/C [36] 93.3%

CC1COCCN1c1cc(-c2ccnn2C)c2ccnc(-c3ccn[nH]3)c2n1 (stereo unspecified) + Cc1[nH]c2ccc(F)cc2c1-c1nc2c3cccnc3c3ncccc3c2[nH]1
active: viability, T/C [3] 7.54% | viability, T/C [4] 5% | viability, T/C [5] 5.42% | viability, T/C [6] 5.79% | viability, T/C [9] 8.57% | viability, T/C [10] 5.57% | viability, T/C [11] 6.67% | viability, T/C [12] 6.18% | viability, T/C [15] 7.48% | viability, T/C [16] 5.56% | viability, T/C [17] 6.42% | viability, T/C [18] 6.89% | viability, T/C [21] 6.83% | viability, T/C [22] 5.52% | viability, T/C [23] 7.58% | viability, T/C [24] 7.98% | viability, T/C [27] 7.5% | viability, T/C [28] 6.04% | viability, T/C [29] 7.48% | viability, T/C [30] 7.66% | viability, T/C [33] 8.02% | viability, T/C [34] 5.7% | viability, T/C [35] 5.81% | viability, T/C [36] 6.85%
0.0505 µM: IC50 (second compound 0.0316 µM)
0.0336 µM: IC50 (second compound 10 µM)
0.0404 µM: IC50 (second compound 3.16 µM)
0.0506 µM: IC50 (second compound 0.316 µM)
inactive: viability, T/C [1] 74.1% | viability, T/C [2] 15% | viability, T/C [7] 70.8% | viability, T/C [8] 15% | viability, T/C [13] 72.2% | viability, T/C [14] 17.8% | viability, T/C [19] 49% | viability, T/C [20] 13.3% | viability, T/C [25] 59.7% | viability, T/C [26] 13.9% | viability, T/C [31] 52.1% | viability, T/C [32] 11.5%
< 0.0316 µM: IC50 (second compound 1 µM)
0.0485 µM: IC50 (second compound 0.1 µM)
